The record followed here is publication PMC10762662, “An orally-available monovalent SMAC mimetic compound as a broad-spectrum antiviral” (Protein & Cell, 2023).

SMILES strings stand for the structures.

Test in all cases: BIR3 domain binding IC50 (assay format not stated)
One experiment addresses T1, XIAP (Homo sapiens, UniProt P98170).
T1 construct: BIR3 domain

The target of the next experiment is T2, cIAP2 (Homo sapiens, UniProt Q13489).
T2 construct: gene BIRC3; BIR3 domain

The target in another experiment is T3, cIAP1 (Homo sapiens, UniProt Q13490).
T3 construct: gene BIRC2; BIR3 domain
T3 sequence (Q13490 264-331 limits assumed): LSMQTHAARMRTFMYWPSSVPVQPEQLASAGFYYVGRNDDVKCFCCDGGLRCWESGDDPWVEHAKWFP

T2 sequence (Q13489 250-317 limits assumed): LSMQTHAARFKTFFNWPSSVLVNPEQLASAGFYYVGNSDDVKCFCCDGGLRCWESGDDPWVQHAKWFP
T1 sequence (P98170 241-356 limits assumed): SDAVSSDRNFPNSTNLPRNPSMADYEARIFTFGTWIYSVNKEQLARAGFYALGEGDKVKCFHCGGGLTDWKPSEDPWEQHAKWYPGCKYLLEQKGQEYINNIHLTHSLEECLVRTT

For `CN[C@@H](C)C(=O)Nc1ccc(-c2c(C)nc3ccccn23)c(C#Cc2ccc3ncccc3c2)n1` [BI-82], the results for the IC50 at XIAP, at cIAP2 and at cIAP1 were 273 ± 82.5 nM, 17.1 ± 5.37 nM and 0.9 ± 0.15 nM, respectively.

By IC50 is commonly meant the concentration that inhibits the measured activity by half.
